Biological target: PvlArgDC (pyruvoyl-dependent arginine decarboxylase) (Methanocaldococcus jannaschii, UniProt Q57764)
Assay: X-ray crystal structure, […] A
Type: binding
Conditions: cocrystallized with 1-2 mM arginine, pH 6.7-7.3, 295 K; agmatine in all six active sites

Chain of PvlArgDC (pyruvoyl-dependent arginine decarboxylase) (Q57764 53-165): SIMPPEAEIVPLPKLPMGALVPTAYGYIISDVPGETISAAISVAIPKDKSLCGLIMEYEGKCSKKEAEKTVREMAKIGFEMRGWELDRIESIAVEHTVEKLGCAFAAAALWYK
Chain of PvlArgDC (pyruvoyl-dependent arginine decarboxylase) (Q57764 1-52): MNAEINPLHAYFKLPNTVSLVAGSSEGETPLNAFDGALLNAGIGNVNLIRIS

For `N=C(N)NCCCCN` [agmatine], the “X-ray crystal structure, 2.0 A” value was “all six protomers were fully processed and contained the product agmatine at the active site”.

Source: article PMC2467525 (Acta Crystallographica Section D: Biological Crystallography, 2008)
